In paper PMC9110388, “Integrative structure determination reveals functional global flexibility for an ultra-multimodular arabinanase” (Communications Biology, 2022):

Biological target: T1, AbnA-WT (Geobacillus stearothermophilus, UniProt B3EYN2)
T1 sequence (B3EYN2 29-848): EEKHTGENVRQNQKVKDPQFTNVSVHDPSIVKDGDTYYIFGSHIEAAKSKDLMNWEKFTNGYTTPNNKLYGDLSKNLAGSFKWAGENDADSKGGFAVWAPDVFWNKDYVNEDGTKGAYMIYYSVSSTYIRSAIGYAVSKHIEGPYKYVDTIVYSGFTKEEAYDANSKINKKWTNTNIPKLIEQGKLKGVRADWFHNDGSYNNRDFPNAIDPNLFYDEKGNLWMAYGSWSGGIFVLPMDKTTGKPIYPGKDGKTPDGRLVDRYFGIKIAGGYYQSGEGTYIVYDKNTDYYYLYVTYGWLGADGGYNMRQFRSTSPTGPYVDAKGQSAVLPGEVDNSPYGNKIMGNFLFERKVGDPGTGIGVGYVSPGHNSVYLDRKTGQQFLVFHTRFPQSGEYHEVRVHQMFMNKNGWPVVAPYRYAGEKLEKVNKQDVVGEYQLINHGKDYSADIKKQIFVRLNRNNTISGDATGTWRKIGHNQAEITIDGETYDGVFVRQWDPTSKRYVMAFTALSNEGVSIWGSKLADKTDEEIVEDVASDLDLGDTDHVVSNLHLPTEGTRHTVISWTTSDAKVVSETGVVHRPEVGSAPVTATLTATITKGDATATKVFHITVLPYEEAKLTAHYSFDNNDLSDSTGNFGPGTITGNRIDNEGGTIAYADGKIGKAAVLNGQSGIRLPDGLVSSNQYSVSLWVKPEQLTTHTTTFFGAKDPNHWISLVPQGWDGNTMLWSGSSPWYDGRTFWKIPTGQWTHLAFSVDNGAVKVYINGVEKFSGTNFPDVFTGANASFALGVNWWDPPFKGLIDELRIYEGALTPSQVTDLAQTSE
Assay: X-ray crystal structure, soaked crystal, […] A
Format: binding
Settings: bound in Domain4 (CBM-like) cleft, not in the active site; 5 mM soak ~30 s; 70% occupancy

For `OC[C@@H]1O[C@@H](OC[C@@H]2O[C@@H](OC[C@@H]3O[C@@H](OC[C@@H]4O[C@@H](OC[C@@H]5OC(O)[C@H](O)[C@H]5O)[C@H](O)[C@H]4O)[C@H](O)[C@H]3O)[C@H](O)[C@H]2O)[C@H](O)[C@H]1O` (stereo partly shown) [A5, arabinopentaose], the “X-ray crystal structure, soaked crystal, 2.95 A” value was “extra density was observed in Domain4, and this could be clearly modelled as an arabinopentaose molecule”.
